Q: Which results are given for `O=S(=O)([O-])Oc1ccc(C(c2ccc(OS(=O)(=O)[O-])cc2)c2ccccn2)cc1.[Na+].[Na+]`?
A: solubility (mole fraction) (in DMF, 298.15 K): 0.0269; solubility (mole fraction) (in DMF, 303.15 K): 0.0321; solubility (mole fraction) (in DMF, 308.15 K): 0.0387; solubility (mole fraction) (in DMF, 313.15 K): 0.0463; solubility (mole fraction) (in DMF, 318.15 K): 0.0561; solubility (mole fraction) (in DMSO, 298.15 K): 0.0049; solubility (mole fraction) (in DMSO, 303.15 K): 0.0058; solubility (mole fraction) (in DMSO, 308.15 K): 0.0069; solubility (mole fraction) (in DMSO, 313.15 K): 0.0083; solubility (mole fraction) (in DMSO, 318.15 K): 0.0099; solubility (mole fraction) (in acetic acid, 298.15 K): 0.0014; solubility (mole fraction) (in acetic acid, 303.15 K): 0.0019; solubility (mole fraction) (in acetic acid, 308.15 K): 0.0025; solubility (mole fraction) (in acetic acid, 313.15 K): 0.0034; solubility (mole fraction) (in acetic acid, 318.15 K): 0.0046; solubility (mole fraction) (in acetonitrile, 298.15 K): 0.0001; solubility (mole fraction) (in acetonitrile, 303.15 K): 0.0001; solubility (mole fraction) (in acetonitrile, 308.15 K): 0.0003; solubility (mole fraction) (in acetonitrile, 313.15 K): 0.0005; solubility (mole fraction) (in acetonitrile, 318.15 K): 0.001; solubility (mole fraction) (in ethanol, 298.15 K): 0.0011; solubility (mole fraction) (in ethanol, 303.15 K): 0.0015; solubility (mole fraction) (in ethanol, 308.15 K): 0.0021; solubility (mole fraction) (in ethanol, 313.15 K): 0.003; solubility (mole fraction) (in ethanol, 318.15 K): 0.0041; solubility (mole fraction) (in methanol, 298.15 K): 0.0096; solubility (mole fraction) (in methanol, 303.15 K): 0.0116; solubility (mole fraction) (in methanol, 308.15 K): 0.0142; solubility (mole fraction) (in methanol, 313.15 K): 0.0178; solubility (mole fraction) (in methanol, 318.15 K): 0.0213; solubility (mole fraction) (in n-butanol, 298.15 K): 0.0001; solubility (mole fraction) (in n-butanol, 303.15 K): 0.0002; solubility (mole fraction) (in n-butanol, 308.15 K): 0.0005; solubility (mole fraction) (in n-butanol, 313.15 K): 0.0011; solubility (mole fraction) (in n-butanol, 318.15 K): 0.0022; solubility (mole fraction) (in n-propanol, 298.15 K): 0.0002; solubility (mole fraction) (in n-propanol, 303.15 K): 0.0004; solubility (mole fraction) (in n-propanol, 308.15 K): 0.0007; solubility (mole fraction) (in n-propanol, 313.15 K): 0.0014; solubility (mole fraction) (in n-propanol, 318.15 K): 0.0028; solubility (mole fraction) (in water, 298.15 K): 0.0215; solubility (mole fraction) (in water, 303.15 K): 0.0252; solubility (mole fraction) (in water, 308.15 K): 0.0299; solubility (mole fraction) (in water, 313.15 K): 0.0347; solubility (mole fraction) (in water, 318.15 K): 0.0398

— BigSolDB 2.1
